For one assay, the system named is TNF-α. The experiment in a line: Inhibition of TNF-α secretion in LPS stimulated peripheral blood mononuclear cells. Format: cell-based. The following applies: PBMC; LPS stimulated human peripheral blood mononuclear cells, 18 hours, ELISA; read-out: The median inhibition concentration (IC50, nM) of TNF-α. How it is done: (§1) To study the effect of compounds of the present invention in vitro, the inhibition of IL-1β and TNF-α secretion was determined using the following procedure:
(§2) Cytokine production was measured in the media from lipopolysaccharide (LPS) stimulated peripheral blood mononuclear cells. The mononuclear cells were isolated from human peripheral blood by Lymphoprep® (Nycomed, Norway) fractionation and suspended in RPMI 1640 (growth medium) with foetal calf serum (FCS, 2%), at a concentration of 5×10^5 cells/ml. The cells were incubated in 24-well tissue culture plates in 1 ml aliquots. Test compounds were dissolved in dimethylsulfoxide (DMSO, 10 mM) and were diluted with the medium. Compounds were added to the cells for 30 minutes, then LPS ([…] final concentration) was added. The plates were incubated for 18 hours, and the concentration of IL-β and TNF-α in the medium was determined by enzyme-linked immunosorbent assays. The median inhibitory concentrations (IC50) of the compounds were calculated.

The test system of assay [1] is LPS induced TNF-α response. The experiment in a line: In vivo screening model of LPS induced TNF-α response in mice. The following applies: Mus musculus, mice (C3H/HeN), dosed 1 hour prior to LPS, plasma TNF-α 80-90 minutes after LPS, vs LPS treated control group, read-out: In vivo inhibition of LPS induced TNF-α production (in %). The method, then: In Vivo Screening Model of LPS Induced TNF-α Response in Mice
To study the effect of compounds of the present invention in vivo, an in vivo screening model of LPS induced TNF-α response in mice was set up as follows: Groups of 6 mice (C3H/HeN, female, about 8 weeks (20 g), Bomholtgaard) were dosed with test compounds in suspension vehicle 1 hour prior to LPS administration (LPS from E. coli 055:B5, L-4005, Sigma). At time 0, the mice were dosed ip with 1.0 mg LPS/kg. After anesthetization with Hypnorm/Dormicum, the mice were bled from the periorbital venous plexus 80-90 minutes after LPS administration. The blood samples were sampled in EDTA stabilised tubes and centrifuged at 4000 rpm for 10 minutes at 4° C. The plasma level of TNF-α was analysed by ELISA. Compound 156 of WO 98/32730 was used as reference compound. The plasma level of TNF-α was determined using a sandwich ELISA. Microtiter plates were coated with a monoclonal antibody against mouse TNF-α, washed and blocked with a casein buffer. Samples of mouse TNF-α recombinant standards were added to the wells of the microtiter plates and incubated. All standards were tested in triplicate, all plasma samples in single. After sample and standard incubation, the plates were washed and incubated with biotinylated polyclonal secondary antibody against mouse TNF-α and washed. Enzyme conjugate was added to all wells and incubated. Substrate was added and the enzyme/substrate reaction stopped after 15 minutes at room temperature with 1M H2SO4. The colour development (OD) was measured at 450 nm on an ELISA reader and the background OD at 620 nm was subtracted. […] The results of the tested compounds are indicated as a percentage inhibition compared to an LPS treated control group. Compounds were tested at 10 mg/kg. The Mann-Whitney test was used to compare drug treated groups to the LPS treated control group (p<0.05).

The test system of a further assay is IL-1β. In words: Inhibition of IL-1β secretion in LPS stimulated peripheral blood mononuclear cells. The assay is classed as cell-based. To be noted: PBMC; LPS stimulated human peripheral blood mononuclear cells, 18 hours, ELISA; read-out: The median inhibition concentration (IC50, nM) of IL-1β. The method, then:
as §1, §2
Background: In an ELISA, binding on a coated surface is turned into a signal by an enzyme label.

Consider `COc1ccc(C(=O)NC(C)(C)CO)cc1C(=O)c1ccc(Nc2c(F)cccc2F)cc1Cl` [Compound 178, 3-[2-Chloro-4-(2,6-difluoro-phenylamino)-benzoyl]-N-(2-hydroxy-1,1-dimethyl-ethyl)-4-methoxy-benzamide], for which the IC50 with TNF-α worked out at 1.6 nM; in the assay with IL-1β it was 6.3 nM. For the same compound, in assay [1], the inhibition at 10 mg/kg was 67%.

On to `Cc1ccc(NC(=O)NC2CCCCC2)cc1C(=O)c1ccc(Nc2ccc(F)cc2F)cc1Cl` [Compound 266, 1-{3-[2-Chloro-4-(2,4-difluoro-phenylamino)-benzoyl]-4-methyl-phenyl}-3-cyclohexyl-urea], for which the IC50 in the assay with TNF-α was 0.4 nM; in the assay with IL-1β, 0.9 nM. The inhibition at 10 mg/kg in assay [1] turned out to be 54%.

In the case of `C=CCOC(=O)Nc1ccc(C)c(C(=O)c2ccc(Nc3ccc(F)cc3F)cc2Cl)c1` [Compound 278, {3-[2-Chloro-4-(2,4-difluoro-phenylamino)-benzoyl]-4-methyl-phenyl}-carbamic acid allyl ester], the results for the IC50 in the assay with TNF-α and with IL-1β were 0.6 nM and 1.3 nM, respectively. In addition, in assay [1], the inhibition at 10 mg/kg worked out at 65%.

As for `COc1ccc(C(=O)NCCF)cc1C(=O)c1ccc(Nc2c(F)cccc2F)cc1Cl` [Compound 174], the IC50 in the assay with TNF-α was 2 nM; in the assay with IL-1β, 3.2 nM. For the same compound, the inhibition at 10 mg/kg in assay [1] came to 64%.

`Cc1ccc(NC(=O)NCCO)cc1C(=O)c1ccc(Nc2ccc(F)cc2F)cc1Cl` [Compound 260, 1-{3-[2-Chloro-4-(2,4-difluoro-phenylamino)-benzoyl]-4-methyl-phenyl}-3-(2-hydroxy-ethyl)-urea]: the IC50 was found to be 0.5 nM in the assay on TNF-α and 1.8 nM with IL-1β. The inhibition at 10 mg/kg in assay [1] turned out to be 95%.

Take `Cc1ccc(C(=O)NCCO)cc1C(=O)c1ccc(Nc2ccc(F)cc2F)cc1Cl` [Compound 115, 3-[2-Chloro-4-(2,4-difluorophenylamino)benzoyl]-N-(2-hydroxyethyl)-4-methylbenzamide]: the IC50 in the assay with TNF-α was found to be 0.3 nM; in the assay on IL-1β, 1.3 nM. The inhibition at 10 mg/kg in assay [1] was 96%.

On to `Cc1ccc(C(=O)NCC(N)=O)cc1C(=O)c1ccc(Nc2ccc(F)cc2F)cc1Cl` [Compound 145, N-Carbamoylmethyl-3-[2-chloro-4-(2,4-difluoro-phenylamino)-benzoyl]-4-methyl-benzamide], for which the IC50 with TNF-α came out at 0.3 nM; in the assay on IL-1β, 1.3 nM. In addition, the inhibition at 10 mg/kg in assay [1] turned out to be 94%.

With `COCCCNC(=O)c1ccc(C)c(C(=O)c2ccc(Nc3ccc(Cl)cc3F)cc2Cl)c1` [Compound 131, 3-[2-Chloro-4-(4-chloro-2-fluoro-phenylamino)-benzoyl]-N-(3-methoxy-propyl)-4-methyl-benzamide], the IC50 is 1.3 nM in the assay with TNF-α and 3.2 nM in the assay on IL-1β. In addition, the inhibition at 10 mg/kg in assay [1] turned out to be 70%.

As for `COc1ccc(C(=O)NCC(F)F)cc1C(=O)c1ccc(Nc2ccc(F)cc2F)cc1Cl` [Compound 141, 3-[2-Chloro-4-(2,4-difluoro-phenylamino)-benzoyl]-N-(2,2-difluoro-ethyl)-4-methoxy-benzamide], the IC50 is 0.6 nM with TNF-α and 0.9 nM in the assay with IL-1β. In addition, the inhibition at 10 mg/kg in assay [1] turned out to be 46%.

In the case of `Cc1ccc(C(=O)NCCO)cc1C(=O)c1ccc(Nc2ccc(Cl)cc2F)cc1Cl` [Compound 120, 3-[2-Chloro-4-(4-chloro-2-fluoro-phenylamino)-benzoyl]-N-(2-hydroxy-ethyl)-4-methyl-benzamide], the values for the IC50 with TNF-α and in the assay on IL-1β were 2 nM and 2.7 nM, respectively. Moreover, the inhibition at 10 mg/kg in assay [1] was 86%.

With `COc1ccc(C(=O)NCC(O)CO)cc1C(=O)c1ccc(Nc2ccc(F)cc2)cc1Cl` (centres unmarked) [Compound 198, 3-[2-Chloro-4-(4-fluoro-phenylamino)-benzoyl]-N-(2,3-dihydroxy-propyl)-4-methoxy-benzamide], the figures for the IC50 with TNF-α and in the assay with IL-1β were 0.4 nM and 1.1 nM, respectively. The inhibition at 10 mg/kg in assay [1] came to 76%.

For `Cc1ccc(C(=O)NCC(O)CO)cc1C(=O)c1ccc(Nc2ccc(F)cc2F)cc1Cl` (centres unmarked) [Compound 152, 3-[2-Chloro-4-(2,4-difluoro-phenylamino)-benzoyl]-N-(2,3-dihydroxy-propyl)-4-methyl-benzamide], the IC50 in the assay with TNF-α was 0.6 nM; with IL-1β it was 2.8 nM. In addition, in assay [1], the inhibition at 10 mg/kg was 99%.

On to `Cc1ccc(C(=O)NCC(F)(F)F)cc1C(=O)c1ccc(Nc2ccc(F)cc2F)cc1Cl` [Compound 148, 3-[2-Chloro-4-(2,4-difluoro-phenylamino)-benzoyl]-4-methyl-N-(2,2,2-trifluoro-ethyl) benzamide], for which the IC50 stood at 0.2 nM in the assay with TNF-α and 0.6 nM in the assay on IL-1β. In addition, in assay [1], the inhibition at 10 mg/kg worked out at 71%.

On to `Cc1ccc(C(=O)NC(C)C)cc1C(=O)c1ccc(Nc2ccc(F)cc2F)cc1Cl` [Compound 164, 3-[2-Chloro-4-(2,4-difluoro-phenylamino)-benzoyl]-N-isopropyl-4-methyl-benzamide], for which the IC50 with TNF-α was 2 nM; in the assay on IL-1β, 1.3 nM. In addition, in assay [1], the inhibition at 10 mg/kg was found to be 76%.

Take `Cc1ccc(C(=O)NCCF)cc1C(=O)c1ccc(Nc2ccc(F)cc2F)cc1Cl` [Compound 147, 3-[2-Chloro-4-(2,4-difluoro-phenylamino)-benzoyl]-N-(2-fluoro-ethyl)-4-methyl-benzamide]: the IC50 was 0.8 nM in the assay on TNF-α and 2.5 nM with IL-1β. Further, the inhibition at 10 mg/kg in assay [1] was 89%.

As to `COc1ccc(C(=O)NCCO)cc1C(=O)c1ccc(Nc2c(F)cccc2F)cc1Cl` [Compound 173, 3-[2-Chloro-4-(2,6-difluoro-phenylamino)-benzoyl]-N-(2-hydroxy-ethyl)-4-methoxy-benzamide], the IC50 in the assay with TNF-α was 2 nM; in the assay with IL-1β, 2.5 nM. The inhibition at 10 mg/kg in assay [1] was 90%.

With `COc1ccc(C(=O)NCCCO)cc1C(=O)c1ccc(Nc2c(F)cccc2F)cc1Cl` [Compound 176, 3-[2-Chloro-4-(2,6-difluoro-phenylamino)-benzoyl]-N-(3-hydroxy-propyl)-4-methoxy-benzamide], the IC50 in the assay with TNF-α was found to be 2 nM; in the assay on IL-1β, 3.2 nM. Further, in assay [1], the inhibition at 10 mg/kg came out at 52%.

`COCCNC(=O)c1ccc(C)c(C(=O)c2ccc(Nc3ccccc3N)cc2Cl)c1` [Compound 116, 3-[4-(2-Aminophenylamino)-2-chlorobenzoyl]-N-(2-methoxyethyl)-4-methylbenzamide]: the IC50 in the assay with TNF-α and in the assay with IL-1β was 1 nM each time. Besides, the inhibition at 10 mg/kg in assay [1] came out at 95%.

For the compound `Cc1ccc(C(=O)NCCO)cc1C(=O)c1ccc(Nc2ccc(F)cc2Cl)cc1Cl` [Compound 188, 3-[2-Chloro-4-(2-chloro-4-fluoro-phenylamino)-benzoyl]-N-(2-hydroxy-ethyl)-4-methyl-benzamide], the IC50 amounted to 0.5 nM with TNF-α and 0.9 nM with IL-1β. Moreover, the inhibition at 10 mg/kg in assay [1] came out at 95%.

Turning to `Cc1ccc(C(=O)NCC(C)C)cc1C(=O)c1ccc(Nc2ccc(Cl)cc2F)cc1Cl` [Compound 129, 3-[2-Chloro-4-(4-chloro-2-fluoro-phenylamino)-benzoyl]-N-isobutyl-4-methyl-benzamide], the results for the IC50 in the assay on TNF-α and in the assay with IL-1β were 1.3 nM and 2.5 nM, respectively. Also, in assay [1], the inhibition at 10 mg/kg amounted to 73%.

For the compound `CCNC(=O)c1ccc(C)c(C(=O)c2ccc(Nc3ccc(Cl)cc3F)cc2Cl)c1` [Compound 126, 3-[2-Chloro-4-(4-chloro-2-fluoro-phenylamino)-benzoyl]-N-ethyl-4-methyl-benzamide], the IC50 with TNF-α amounted to 0.6 nM; in the assay with IL-1β, 2.8 nM. The inhibition at 10 mg/kg in assay [1] was found to be 79%.

On to `Cc1ccccc1C(=O)c1ccc(Nc2ccccc2N)cc1Cl` [Ref. comp. a, 4-(2-aminophenylamino)-2-chloro-2′-methylbenzophenone, reference compound], for which, in assay [1], the inhibition at 10 mg/kg was 23%.

With `Cc1ccc(C(=O)O)cc1C(=O)c1ccc(Nc2ccc(F)cc2F)cc1Cl` [Compound 424, 3-[2-Chloro-4-(2,4-difluorophenylamino)benzoyl]-4-methylbenzoic acid], the inhibition at 10 mg/kg in assay [1] turned out to be 44%.

In general, inhibition refers to the drop in the measured response relative to a control, in per cent.

These data come from patent US7977387B2, “Aminobenzophenone compounds” (Leo Pharma A/S, priority 2003, dated 2011).
